The results in this text go back to PubChem BioAssay (NCI).

Each structure is given as a SMILES string.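 Compound exposure: 48 hours, 5 concentrations, 96-well plates. GI50 = concentration required for 50% inhibition of growth. TGI denotes the concentration required for complete inhibition of growth.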 Bounds are passed on as bounds.

Test systems include 786-0 renal; ACHN renal; HT29 colon; IGROV1 ovarian; LOX IMVI melanoma; NCI-H226 lung; OVCAR-4 ovarian; SF-268 CNS; SK-MEL-28 melanoma; SNB-75 CNS.
Common to all, as to test: NCI-60 cell line screen, 48 h

For `COc1cc2c(cc1OCCCOC1=C=C=C(c3ccc4c(c3)c3cc(-c5ccc(OCCCOc6cc7c(cc6OC)C(=O)N6CCC[C@H]6C=N7)cc5)ccc3n4S(=O)(=O)c3ccc(C)cc3)C=C1)N=C[C@@H]1CCCN1C2=O`, the GI50 was 1.38 µM in the assay with 786-0 renal; 1.75 µM in the assay on ACHN renal; 1.44 µM with HT29 colon; 1.8 µM with IGROV1 ovarian; 1.49 µM in the assay on LOX IMVI melanoma; 4 µM in the assay with NCI-H226 lung. In addition, the GI50 in the assay on OVCAR-4 ovarian was 3.58 µM; in the assay with SF-268 CNS, 0.934 µM; with SK-MEL-28 melanoma, 1.86 µM; in the assay with SNB-75 CNS, 1.03 µM. Also, the TGI in the assay on 786-0 renal is 4.12 µM; in the assay with ACHN renal, 7.8 µM; with HT29 colon, above 20.5 µM; in the assay on IGROV1 ovarian, 8.69 µM; in the assay on LOX IMVI melanoma it was 7.51 µM; in the assay with NCI-H226 lung, 12.9 µM. For the same compound, the TGI with OVCAR-4 ovarian stood at 30.9 µM; in the assay on SF-268 CNS, 2.85 µM; with SK-MEL-28 melanoma it was 4.97 µM; with SNB-75 CNS it was 5.33 µM.

Turning to `NC1CCCCC1N.O=C([O-])P(=O)([O-])[O-].[Na+].[Pt+4]` (centres undefined), the GI50 with 786-0 renal, with ACHN renal, with HT29 colon, in the assay on IGROV1 ovarian, with LOX IMVI melanoma and with NCI-H226 lung was above 100 µM in each case. Moreover, the GI50 with OVCAR-4 ovarian, in the assay on SF-268 CNS, in the assay with SK-MEL-28 melanoma and in the assay with SNB-75 CNS was above 100 µM each time. For the same compound, the TGI in the assay on 786-0 renal, in the assay on ACHN renal, in the assay on HT29 colon, with IGROV1 ovarian, in the assay with LOX IMVI melanoma and with NCI-H226 lung was above 100 µM each time. Moreover, the TGI in the assay on OVCAR-4 ovarian, with SF-268 CNS, in the assay on SK-MEL-28 melanoma and in the assay on SNB-75 CNS was above 100 µM throughout.

For the compound `OCCCCC#Cc1ccccc1C#Cc1ccccc1F`, the GI50 with 786-0 renal was 14.3 µM; with ACHN renal, 25.5 µM; in the assay on HT29 colon, 52 µM; in the assay on IGROV1 ovarian, 15 µM; in the assay on LOX IMVI melanoma, 17.4 µM; in the assay with NCI-H226 lung, 24 µM. For the same compound, the GI50 in the assay on OVCAR-4 ovarian was above 100 µM; in the assay on SF-268 CNS it was 25.3 µM; with SK-MEL-28 melanoma, 27.3 µM; in the assay on SNB-75 CNS, above 100 µM. Further, the TGI in the assay on 786-0 renal was 29.8 µM; in the assay on ACHN renal it was 53.6 µM; in the assay on HT29 colon, above 100 µM; with IGROV1 ovarian, 33.1 µM; in the assay on LOX IMVI melanoma, 31.6 µM; with NCI-H226 lung it was 49.8 µM. The TGI with OVCAR-4 ovarian was above 100 µM; in the assay on SF-268 CNS it was 62.4 µM; in the assay with SK-MEL-28 melanoma it was 72.9 µM; in the assay on SNB-75 CNS, above 100 µM.

For `Cc1nc2cncc(C#Cc3cncc(C(=O)Nc4ccc(CN5CCN(C)CC5)c(C(F)(F)F)c4)c3)c2nc1C`, the GI50 in the assay with 786-0 renal was 0.925 µM; in the assay with ACHN renal it was 0.183 µM; in the assay with HT29 colon, 0.205 µM; with IGROV1 ovarian, 0.206 µM; in the assay with LOX IMVI melanoma, 0.208 µM; with NCI-H226 lung it was 0.0572 µM. The GI50 with OVCAR-4 ovarian is 0.162 µM; with SF-268 CNS, 0.552 µM; in the assay on SK-MEL-28 melanoma, 0.422 µM; with SNB-75 CNS, 0.854 µM. Besides, the TGI with 786-0 renal is 7.4 µM; in the assay with ACHN renal, 2.53 µM; in the assay with HT29 colon, 7.56 µM; with IGROV1 ovarian it was 1.29 µM; with LOX IMVI melanoma, 0.807 µM; in the assay on NCI-H226 lung, 4.19 µM. Also, the TGI in the assay with OVCAR-4 ovarian turned out to be 6.74 µM; in the assay on SF-268 CNS, 18.8 µM; in the assay with SK-MEL-28 melanoma, 2.71 µM; with SNB-75 CNS, 3.34 µM.

As for `O=CN1N=C(c2ccc(Nc3ccnc4cc(Cl)ccc34)cc2)CC1c1ccccc1` (centres undefined), the GI50 was 3.36 µM in the assay with 786-0 renal; 4.21 µM in the assay with ACHN renal; 3.21 µM with HT29 colon; 9.36 µM in the assay on IGROV1 ovarian; 1.61 µM in the assay on LOX IMVI melanoma; 5.22 µM in the assay with NCI-H226 lung. For the same compound, the GI50 with OVCAR-4 ovarian was 3.88 µM; in the assay with SF-268 CNS, 3.96 µM; in the assay with SK-MEL-28 melanoma, 8.35 µM; in the assay on SNB-75 CNS, 5.03 µM. The TGI in the assay with 786-0 renal was 12.2 µM; with ACHN renal, 84.4 µM; in the assay with HT29 colon it was 11.1 µM; in the assay with IGROV1 ovarian, above 100 µM; with LOX IMVI melanoma, 3.33 µM; in the assay on NCI-H226 lung, above 100 µM. Besides, the TGI was above 100 µM in the assay with OVCAR-4 ovarian, above 100 µM in the assay with SF-268 CNS, 77.7 µM in the assay on SK-MEL-28 melanoma and above 100 µM with SNB-75 CNS.

Consider `CSc1ccc(-c2cc(-c3ccc(NC(=O)CCCN4CCCC4)cc3)nc(-c3ccc(NC(=O)CCCN4CCCC4)cc3)c2)cc1`, for which the GI50 was 6.88 µM with 786-0 renal; 3.65 µM in the assay on ACHN renal; 1.71 µM in the assay on HT29 colon; 10.3 µM in the assay with IGROV1 ovarian; 2.01 µM in the assay on LOX IMVI melanoma; 3.12 µM in the assay with NCI-H226 lung. Also, the GI50 in the assay on OVCAR-4 ovarian is 2.91 µM; in the assay with SF-268 CNS, 2.15 µM; in the assay on SK-MEL-28 melanoma, 3.83 µM; in the assay with SNB-75 CNS it was 1.64 µM. The TGI with 786-0 renal worked out at 23.9 µM; with ACHN renal, 13.9 µM; in the assay with HT29 colon, 3.13 µM; with IGROV1 ovarian it was 33.8 µM; with LOX IMVI melanoma it was 4.18 µM; in the assay with NCI-H226 lung it was 16.1 µM. Moreover, the TGI came to 12.9 µM with OVCAR-4 ovarian, 5.01 µM with SF-268 CNS, 20.7 µM in the assay on SK-MEL-28 melanoma and 4.99 µM with SNB-75 CNS.

Turning to `CNC(=O)c1c(NC(=O)c2cccc(C(F)(F)F)c2)sc2c1CCC(=O)C2`, the GI50 was 0.447 µM in the assay with 786-0 renal; 0.323 µM with ACHN renal; 0.347 µM in the assay with HT29 colon; 0.339 µM in the assay on IGROV1 ovarian; 0.339 µM in the assay on LOX IMVI melanoma; 1.61 µM in the assay with NCI-H226 lung. The GI50 was 0.389 µM in the assay with OVCAR-4 ovarian, 0.486 µM with SF-268 CNS, 0.837 µM in the assay with SK-MEL-28 melanoma and 0.575 µM with SNB-75 CNS. For the same compound, the TGI was above 36.8 µM in the assay on 786-0 renal; 1.34 µM with ACHN renal; 2.26 µM in the assay on IGROV1 ovarian; 1.66 µM in the assay on LOX IMVI melanoma; 5.71 µM with NCI-H226 lung; 1.44 µM with OVCAR-4 ovarian. The TGI in the assay with SF-268 CNS is above 100 µM; in the assay with SK-MEL-28 melanoma it was above 100 µM; in the assay on SNB-75 CNS it was 5.27 µM.

Regarding `COc1ccccc1/C=C1\CCC(CNc2ccc(Cl)cc2)C1=O` (centres undefined), the TGI in the assay on 786-0 renal came out at 22.2 µM; in the assay with ACHN renal, 14.6 µM; in the assay on HT29 colon, 22.9 µM; in the assay with IGROV1 ovarian, 22.8 µM; in the assay with LOX IMVI melanoma, 9.22 µM; with NCI-H226 lung, 28.3 µM. Besides, the TGI with OVCAR-4 ovarian came out at 28.2 µM; in the assay on SF-268 CNS it was 24.2 µM; in the assay with SK-MEL-28 melanoma, 26.4 µM; in the assay on SNB-75 CNS, 29.9 µM.
